From US20170340690A1, “METHOD FOR IMPROVING INTESTINAL HEALTH USING EXTRACTS OF CODONOPSIS LANCEOLATA” (KOREA INSTITUTE OF SCIENCE AND TECHNOLOGY, priority 2016, published 2017)

Experiments:
[1] = tested on: intestinal microorganisms; test: Measurement of growth of intestinal microorganisms (absorbance at 600 nm); format: cell-based, human; conditions: normal medium condition (FIG. 1), 37° C., 48 hours, extract 100 μg/mL, FOS 1 mg/mL, chloramphenicol 10 or 40 μg/mL
β-glucuronidase = conditions: enzymatic activity divided by OD600; 37° C., 48 hours anaerobic culture; extract 100 μg/mL, FOS 1 mg/mL, chloramphenicol 10 or 40 μg/mL (FIG. 3)
Method: The samples were transfered to an anaerobic workstation within 30 minutes and treated quickly. After adding glycerol as an additive for storage at low temperature, the mixtures were stored in an ultra-low temperature freezer with 40 mL each and were used as samples for culturing of intestinal microorganisms.
Each bioreactor containing 300 mL of a medium was sterilized and maintained at an anaerobic condition by injecting nitrogen gas. Then, the sample of intestinal microorganisms prepared in Test Example 1 was inoculated. After conducting batch culturing for 24 hours, continuous culturing was performed using a medium of the same composition. Total residence time was 24 hours. Culturing temperature was maintained at 37° C. and pH was maintained at 5.5 using a 1 N hydrochloric acid solution and a 1 N sodium hydroxide solution. […] The culturing condition was maintained for at least 30 days. […]
The culture medium of intestinal microorganisms incubated and maintained with a culture medium in a fermenter under an anaerobic condition. […] The supernatant was taken and absorbance was measured at 405 nm. Then, relative β-glucuronidase activity (%) was calculated by dividing the enzymatic activity by the degree of growth of intestinal microorganisms (OD600).

tryptophanase = conditions: enzymatic activity divided by OD600; 37° C., 48 hours anaerobic culture; extract 100 μg/mL, FOS 1 mg/mL, chloramphenicol 10 or 40 μg/mL (FIG. 4)
Method: In order to quickly evaluate the effect of the candidate materials on improvement of intestinal microflora, culturing was performed using a 96-well plate. 10 μL of the culture medium of intestinal microorganisms maintained stably through anaerobic continuous culturing was inoculated to 1 mL of a medium for investigation described in Table 3. Culturing was performed at 37° C. for 48 hours by treating an extract of Codonopsis lanceolata for evaluating the effect of improving intestinal microflora at a concentration of 100 μg/mL (0.2% DMSO). […] At the same time, chloramphenicol (10 or 40 μg/mL) which is an antibiotic known to worsen intestinal microflora was used to compare the effect of improving intestinal microflora. Then, the effect of improving intestinal microflora was investigated by measuring the growth of intestinal microorganisms, the enzymatic activity of harmful bacteria, the content of short-chain fatty acids, etc. using the culture medium of microorganisms.
The culture medium of intestinal microorganisms incubated and maintained with a culture medium in a fermenter under an anaerobic condition. […] The supernatant was taken and absorbance was measured at 550 nm. Then, relative tryptophanase activity (%) was calculated by dividing the enzymatic activity by the degree of growth of intestinal microorganisms (OD600).

[2] = tested on: intestinal microorganisms; test: Gas chromatographic analysis of content of short-chain fatty acids in culture medium of intestinal microorganisms; format: cell-based, human; conditions: 48 hours, extract 100 μg/mL, FOS 1 mg/mL, chloramphenicol 10 or 40 μg/mL; for Content (mM) of short-chain fatty acids: non-treated control 18.6 mM
Method: The analysis sample was subjected to centrifugation of the 96-well plate at 3500 rpm for 10 minutes. 400 μL of the obtained supernatant was stabilized by adding 20 μL of 50% sulfuric acid and then 40 μL of an internal standard (1% 2-methylpentanoic acid) was added. Then, after adding 400 μL of ethyl ether, the mixture was mixed for about 2 minutes by vortexing. The sample was centrifuged and the top ethyl ether layer was recovered and subjected to GC analysis. The analysis was performed using Bruker 450-GC and the Supelco's Nukol Fused silica capillary column ([…]×0.25 mm×0.25 μm). The analysis condition is described in Table 4.

O=C(N[C@H](CO)[C@H](O)c1ccc([N+](=O)[O-])cc1)C(Cl)Cl [chloramphenicol]
growth of intestinal microorganisms [1]: decreased growth of intestinal microorganisms
relative β-glucuronidase activity (β-glucuronidase): increased β-glucuronidase activity
relative tryptophanase activity (tryptophanase): increased tryptophanase activity
Composition of short-chain fatty acids (%) Acetate [2]: 54.36 ± 3.23%
Composition of short-chain fatty acids (%) Butyrate [2]: 20.24 ± 0.64%
Composition of short-chain fatty acids (%) Propionate [2]: 25.40 ± 0.89%
Content (mM) of short-chain fatty acids [2]: 2.03 mM
Content (mM) of short-chain fatty acids ([2]; listed as Antibiotic (chloramphenicol)): 2.03 ± 0.06 mM
